Measured values: patent US10175256B2, “Compositions and methods utilizing lysophosphatidylcholine scaffolds” (National University Of Singapore, priority 2013, dated 2019)
Values joined by “and” are separate entries in the source; they are usually repeats but may differ in a detail not shown here. Identical values can stand only once.

Target: T1, mouse Mfsd2a (Mus musculus, UniProt Q9DA75)
T1 construct: expressed in transfected cells; host or cells: HEK293
T1 sequence (Q9DA75 1-534): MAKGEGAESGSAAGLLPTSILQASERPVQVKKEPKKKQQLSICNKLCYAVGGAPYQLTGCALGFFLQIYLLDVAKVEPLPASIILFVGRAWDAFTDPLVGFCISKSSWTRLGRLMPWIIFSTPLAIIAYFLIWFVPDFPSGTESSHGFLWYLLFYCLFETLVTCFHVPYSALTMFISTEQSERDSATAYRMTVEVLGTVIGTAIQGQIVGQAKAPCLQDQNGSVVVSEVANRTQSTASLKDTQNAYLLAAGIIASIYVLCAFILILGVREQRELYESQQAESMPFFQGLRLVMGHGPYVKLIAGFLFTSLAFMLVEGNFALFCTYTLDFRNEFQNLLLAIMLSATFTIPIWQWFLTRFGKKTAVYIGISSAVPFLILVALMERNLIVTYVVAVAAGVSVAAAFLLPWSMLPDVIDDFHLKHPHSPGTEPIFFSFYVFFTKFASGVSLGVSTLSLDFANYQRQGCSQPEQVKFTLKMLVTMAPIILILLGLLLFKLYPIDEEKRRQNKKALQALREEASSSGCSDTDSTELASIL
Experiment: Cell-based free fatty acid transport/uptake in Mfsd2a expressing HEK293 cells (mass spectrometry, TLC; Table 1)
Details: Mfsd2a HEK293 cells, 100 uM fatty acid/BSA overnight
Method in brief: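 HEK293 cells expressing mouse Mfsd2a, or mock controls, were incubated overnight with 100 μM BSA-complexed fatty acids. Lipids were extracted in hexane:isopropanol (3:2) and phospholipid species quantified by HPLC-MS/MS against spiked internal standards. For TLC, cells received 100 μM [^14C]-oleate overnight, and phospholipids and neutral lipids were resolved.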

`CCCCCCCCCCCCCCCC(=O)O` [Palmitic acid] was tested, and the “PE34p:2 in total phospholipid” value was 0.2893 mol percent and 0.2458 mol percent and 0.4295 mol percent, the “PE36:1 in total phospholipid” value was 1.713 mol percent and 1.465 mol percent and 1.861 mol percent and the “PE36:2 in total phospholipid” value was 2.152 mol percent and 2.192 mol percent and 2.267 mol percent. The “PE36:3 in total phospholipid” value was 0.4629 mol percent and 0.5112 mol percent and 0.4773 mol percent, the “PE36:4 in total phospholipid” value was 0.3125 mol percent and 0.2556 mol percent and 0.346 mol percent and the “PE36p:1 in total phospholipid” value was 0.5555 mol percent and 0.4227 mol percent and 0.5608 mol percent. The “PE36p:2 in total phospholipid” value was 0.7869 mol percent and 0.5996 mol percent and 0.6801 mol percent, the “PE36p:3 in total phospholipid” value was 0.8448 mol percent and 0.8061 mol percent and 1.169 mol percent and the “PE36p:4 in total phospholipid” value was 1.273 mol percent and 1.14 mol percent and 1.432 mol percent. For the same compound, the “PE38:1 in total phospholipid” value was 0.4976 mol percent and 0.3342 mol percent and 0.5727 mol percent, the “PE38:2 in total phospholipid” value was 0.3125 mol percent and 0.3342 mol percent and 0.3579 mol percent and the “PE38:3 in total phospholipid” value was 0.6133 mol percent and 0.6685 mol percent and 0.6204 mol percent. For the same compound, the “PE38:4 in total phospholipid” value was 0.9026 mol percent and 0.9732 mol percent and 1.301 mol percent, the “PE38:5 in total phospholipid” value was 0.486 mol percent and 0.4227 mol percent and 0.5488 mol percent and the “PE38:6 in total phospholipid” value was 0.2083 mol percent and 0.1081 mol percent and 0.1432 mol percent. The “PE38:7 in total phospholipid” value was 0.08101 mol percent and 0.07864 mol percent and 0.04773 mol percent, the “PE38p:0 in total phospholipid” value was 0.1273 mol percent and 0.118 mol percent and 0.1074 mol percent and the “PE38p:1 in total phospholipid” value was 0.1504 mol percent and 0.1769 mol percent and 0.2744 mol percent. The “PE38p:2 in total phospholipid” value was 0.3935 mol percent and 0.2359 mol percent and 0.3937 mol percent, the “PE38p:3 in total phospholipid” value was 0.9721 mol percent and 0.8651 mol percent and 0.9426 mol percent and the “PE38p:4 in total phospholipid” value was 0.9142 mol percent and 0.9437 mol percent and 1.086 mol percent. The “PE38p:5 in total phospholipid” value was 0.9489 mol percent and 0.7569 mol percent and 0.8591 mol percent, the “PE38p:6 in total phospholipid” value was 1.215 mol percent and 1.298 mol percent and 1.348 mol percent and the “PE40:3 in total phospholipid” value was 0.08101 mol percent and 0.0983 mol percent and 0.1074 mol percent. For the same compound, the “PE40:4 in total phospholipid” value was 0.1157 mol percent and 0.118 mol percent and 0.1909 mol percent, the “PE40:5 in total phospholipid” value was 0.1504 mol percent and 0.1868 mol percent and 0.1909 mol percent and the “PE40:6 in total phospholipid” value was 0.4282 mol percent and 0.3539 mol percent and 0.3699 mol percent. The “PE40p:4 in total phospholipid” value was 0.1736 mol percent and 0.1769 mol percent and 0.3102 mol percent, the “PE40p:5 in total phospholipid” value was 0.2893 mol percent and 0.2064 mol percent and 0.3341 mol percent and the “PE40p:6 in total phospholipid” value was 0.6018 mol percent and 0.6095 mol percent and 0.4892 mol percent. The “PE42:7 in total phospholipid” value was 0.06943 mol percent and 0.05898 mol percent and 0.09545 mol percent, the “PE42p:4 in total phospholipid” value was 0.09258 mol percent and 0.1081 mol percent and 0.1074 mol percent and the “PI 32:1 in total phospholipid” value was 0.01515 mol percent and 0.01528 mol percent and 0.0154 mol percent. For the same compound, the “PI 32:2 in total phospholipid” value was 0.002439 mol percent and 0.002103 mol percent and 0.001294 mol percent, the “PI 34:1 in total phospholipid” value was 0.1103 mol percent and 0.114 mol percent and 0.1029 mol percent and the “PI 34:2 in total phospholipid” value was 0.0629 mol percent and 0.06982 mol percent and 0.06458 mol percent. The “PI 36:1 in total phospholipid” value was 0.1503 mol percent and 0.1538 mol percent and 0.1543 mol percent, the “PI 36:2 in total phospholipid” value was 0.3719 mol percent and 0.3721 mol percent and 0.3402 mol percent and the “PI 36:3 in total phospholipid” value was 0.1684 mol percent and 0.1865 mol percent and 0.158 mol percent. The “PI 36:4 in total phospholipid” value was 0.03864 mol percent and 0.0429 mol percent and 0.03921 mol percent, the “PI 38:2 in total phospholipid” value was 0.3564 mol percent and 0.36 mol percent and 0.319 mol percent and the “PI 38:3 in total phospholipid” value was 1.005 mol percent and 1.022 mol percent and 0.9636 mol percent. For the same compound, the “PI 38:4 in total phospholipid” value was 0.3607 mol percent and 0.3811 mol percent and 0.3385 mol percent, the “PI 38:5 in total phospholipid” value was 0.05186 mol percent and 0.04823 mol percent and 0.04943 mol percent and the “PI 38:6 in total phospholipid” value was 0.006419 mol percent and 0.006589 mol percent and 0.006082 mol percent. For the same compound, the “PI 40:3 in total phospholipid” value was 0.02721 mol percent and 0.02636 mol percent and 0.02342 mol percent, the “PI 40:4 in total phospholipid” value was 0.01374 mol percent and 0.0136 mol percent and 0.01449 mol percent and the “PI 40:5 in total phospholipid” value was 0.006419 mol percent and 0.00673 mol percent and 0.006341 mol percent. For the same compound, the “PI 40:6 in total phospholipid” value was 0.008088 mol percent and 0.005328 mol percent and 0.005047 mol percent, the “PS(sum) in total phospholipid” value was 2.6184 mol percent and 2.721 mol percent and 2.696 mol percent and the “PS:34:1 in total phospholipid” value was 0.4034 mol percent and 0.439 mol percent and 0.4315 mol percent. For the same compound, the “PS:34:2 in total phospholipid” value was 0.04042 mol percent and 0.03854 mol percent and 0.04968 mol percent, the “PS:36:1 in total phospholipid” value was 1.063 mol percent and 1.166 mol percent and 1.107 mol percent and the “PS:36:2 in total phospholipid” value was 0.3989 mol percent and 0.3832 mol percent and 0.387 mol percent. The “PS:36:3 in total phospholipid” value was 0.02599 mol percent and 0.02171 mol percent and 0.02615 mol percent, the “PS:36:4 in total phospholipid” value was 0.004537 mol percent and 0.005316 mol percent and 0.006102 mol percent and the “PS:38:2 in total phospholipid” value was 0.2194 mol percent and 0.2087 mol percent and 0.231 mol percent. For the same compound, the “PS:38:3 in total phospholipid” value was 0.1497 mol percent and 0.1471 mol percent and 0.1469 mol percent, the “PS:38:4 in total phospholipid” value was 0.05651 mol percent and 0.07531 mol percent and 0.06102 mol percent and the “PS:38:5 in total phospholipid” value was 0.007425 mol percent and 0.01063 mol percent and 0.01438 mol percent. For the same compound, the “PS:40:4 in total phospholipid” value was 0.07342 mol percent and 0.05892 mol percent and 0.05971 mol percent, the “PS:40:5 in total phospholipid” value was 0.04908 mol percent and 0.05626 mol percent and 0.06189 mol percent and the “PS:40:6 in total phospholipid” value was 0.1089 mol percent and 0.09746 mol percent and 0.1011 mol percent. The “PS:40:7 in total phospholipid” value was 0.01732 mol percent and 0.0124 mol percent and 0.01264 mol percent, the “Total PC + lysoPC in total phospholipid” value was 67.6 mol percent and 68.89 mol percent and 64.689 mol percent and the “Total PE + lysoPE in total phospholipid” value was 26.98 mol percent and 25.52 mol percent and 29.98 mol percent. For the same compound, the “Total PI + lysoPI in total phospholipid” value was 2.796 mol percent and 2.866 mol percent and 2.638 mol percent.
